Experimental data taken from patent publication US6355799B1, “Substituted benzene compounds, process for their preparation, and herbicidal and defoliant compositions containing them” (ISK Americas Incorporated, priority 1997, dated 2002).

Legend:
Format in all cases: in vivo
[1] = tested on: sicklepod (Cassia obtusifolia, CASOB); assay: Pre-emerge test, greenhouse herbicide activity screening; conditions: Senna obtusifolia, pre-emergence, 336 h, pre-emerge, phytotoxicity rating 0-100 at 14 days after application, read-out: Pre-emerge Herbicidal Activity CASOB; for pest or weed control at 63 g/ha: rate 63 g ai/ha; for pest or weed control at 250 g/ha: rate 250 g ai/ha
Outline: (§1)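 Fourteen days after spraying, crop and weed injury was graded visually from 0, no effect, to 100, every plant dead. Test substances were dissolved in acetone and applied at 15–1000 g ai/ha with a flat-fan nozzle. Application was either pre-emergence, one day after sowing, or post-emergence at the 2–3 leaf stage.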

[2] = tested on: johnsongrass (Sorghum halepense, SORHA); assay: Post-emerge test, greenhouse herbicide activity screening; conditions: Sorghum halepense, post-emergence, 336 h, post-emerge, phytotoxicity rating 0-100 at 14 days after application, read-out: Post-emerge Herbicidal Activity SORHA; for pest or weed control at 63 g/ha: 63 g ai/ha; for pest or weed control at 250 g/ha: 250 g ai/ha
Outline: as §1

[3] = tested on: velvetleaf (Abutilon theophrasti, ABUTH); assay: as above; conditions: Abutilon theophrasti, post-emergence, 336 h, post-emerge, phytotoxicity rating 0-100 at 14 days after application, read-out: Post-emerge Herbicidal Activity ABUTH; for pest or weed control at 63 g/ha: 63 g ai/ha; for pest or weed control at 250 g/ha: 250 g ai/ha
Outline: as §1

[4] = tested on: sicklepod (Cassia obtusifolia, CASOB); assay: as above; conditions: Senna obtusifolia, post-emergence, 336 h, post-emerge, phytotoxicity rating 0-100 at 14 days after application, read-out: Post-emerge Herbicidal Activity CASOB; for pest or weed control at 63 g/ha: 63 g ai/ha; for pest or weed control at 250 g/ha: 250 g ai/ha
Outline: as §1

[5] = tested on: redroot pigweed (Amaranthus retroflexus, AMARE); assay: as above; conditions: Amaranthus retroflexus, post-emergence, 336 h, post-emerge, phytotoxicity rating 0-100 at 14 days after application, read-out: Post-emerge Herbicidal Activity AMARE; for pest or weed control at 63 g/ha: 63 g ai/ha; for pest or weed control at 250 g/ha: 250 g ai/ha
Outline: as §1

[6] = tested on: barnyardgrass (Echinochloa crus-galli, ECHCG); assay: as above; conditions: Echinochloa crus-galli, post-emergence, 336 h, post-emerge, phytotoxicity rating 0-100 at 14 days after application, read-out: Post-emerge Herbicidal Activity ECHCG; for pest or weed control at 63 g/ha: 63 g ai/ha; for pest or weed control at 250 g/ha: 250 g ai/ha
Outline: as §1

[7] = tested on: lambsquarters (Chenopodium album, CHEAL); assay: as above; conditions: Chenopodium album, post-emergence, 336 h, post-emerge, phytotoxicity rating 0-100 at 14 days after application, read-out: Post-emerge Herbicidal Activity CHEAL; for pest or weed control at 63 g/ha: 63 g ai/ha; for pest or weed control at 250 g/ha: 250 g ai/ha
Outline: as §1

[8] = tested on: large crabgrass (Digitaria sanguinalis, DIGSA); assay: as above; conditions: Digitaria sanguinalis, post-emergence, 336 h, post-emerge, phytotoxicity rating 0-100 at 14 days after application, read-out: Post-emerge Herbicidal Activity DIGSA; for pest or weed control at 63 g/ha: 63 g ai/ha; for pest or weed control at 250 g/ha: 250 g ai/ha
Outline: as §1

[9] = tested on: ivyleaf morningglory (Ipomoea hederacea, IPOHE); assay: as above; conditions: Ipomoea, post-emergence, 336 h, post-emerge, phytotoxicity rating 0-100 at 14 days after application, read-out: Post-emerge Herbicidal Activity IPOHE; for pest or weed control at 63 g/ha: 63 g ai/ha; for pest or weed control at 250 g/ha: 250 g ai/ha
Outline: as §1

[10] = tested on: green foxtail (Setaria viridis, SETVI); assay: as above; conditions: Setaria viridis, post-emergence, 336 h, post-emerge, phytotoxicity rating 0-100 at 14 days after application, read-out: Post-emerge Herbicidal Activity SETVI; for pest or weed control at 63 g/ha: 63 g ai/ha; for pest or weed control at 250 g/ha: 250 g ai/ha
Outline: as §1

[11] = tested on: redroot pigweed (Amaranthus retroflexus, AMARE); assay: Pre-emerge test, greenhouse herbicide activity screening; conditions: Amaranthus retroflexus, pre-emergence, 336 h, pre-emerge, phytotoxicity rating 0-100 at 14 days after application, read-out: Pre-emerge Herbicidal Activity AMARE; for pest or weed control at 63 g/ha: rate 63 g ai/ha; for pest or weed control at 250 g/ha: rate 250 g ai/ha
Outline: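 Plants grown in 10 cm pots of sandy loam mix received acetone-dissolved compounds through a moving flat-fan nozzle. Doses ranged from 15 to 1000 g ai/ha. Pre-emerge pots were seeded one day earlier, post-emerge pots 8–21 days earlier. Fourteen days on, each pot was graded 0–100 for damage.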

Row | Compound | pest or weed control at 63 g/ha [1] [%] | pest or weed control at 250 g/ha [1] [%] | pest or weed control at 63 g/ha [2] [%] | pest or weed control at 250 g/ha [2] [%] | pest or weed control at 63 g/ha [3] [%] | pest or weed control at 250 g/ha [3] [%] | pest or weed control at 63 g/ha [4] [%] | pest or weed control at 250 g/ha [4] [%] | pest or weed control at 63 g/ha [5] [%] | pest or weed control at 250 g/ha [5] [%] | pest or weed control at 63 g/ha [6] [%] | pest or weed control at 250 g/ha [6] [%] | pest or weed control at 63 g/ha [7] [%] | pest or weed control at 250 g/ha [7] [%] | pest or weed control at 63 g/ha [8] [%] | pest or weed control at 250 g/ha [8] [%] | pest or weed control at 63 g/ha [9] [%] | pest or weed control at 250 g/ha [9] [%] | pest or weed control at 63 g/ha [10] [%] | pest or weed control at 250 g/ha [10] [%] | other results
1 | CC(C)Oc1c(Cl)cc(F)c(N2C(=O)C3=C(CCCC3)C2=O)c1N [Compound 8-4, N-(2-amino-4-chloro-6-fluoro-3-isopropyloxyphenyl)tetrahydrophthalimide] | 0 | 0 | 0 | 0 | 60 | 80 | 0 | 10 | 70 | 90 | 0 | 0 | 70 | 90 | 0 | 0 | 0 | 20 | 0 | 30 | pest or weed control at 63 g/ha [11]: 60%; pest or weed control at 250 g/ha [11]: 100%
2 | Nc1c(O)c(Cl)cc(F)c1N1C(=O)C2=C(CCCC2)C1=O [Compound 8-2, 2-amino-6-chloro-4-fluoro-3-tetrahydrophthalimido)phenol] | 0 | 90 | 10 | 0 | 100 | 100 | 50 | 30 | 95 | 100 | 20 | 30 | 40 | 80 | 30 | 30 | 50 | 90 | 40 | 60 | pest or weed control at 63 g/ha [11]: 90%; pest or weed control at 250 g/ha [11]: 100%
3 | Cc1nn(-c2c(F)cc(Cl)cc2NC(=O)c2ccc3ccccc3c2)c(=O)n1C(F)F [Compound 6-24] | 0 | 0 | 0 | 0 | 20 | 95 | 0 | 10 | 0 | 80 | 0 | 0 | 30 | 90 | 0 | 0 | 0 | 60 | 0 | 40 | pest or weed control at 63 g/ha [11]: 20%; pest or weed control at 250 g/ha [11]: 100%
